Assay results taken from PubChem BioAssay (NCI).
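Assay format: 96-well plates, 48-hour exposure. Here, GI50 denotes the concentration required for 50% inhibition of growth. Definition used: TGI = concentration required for complete inhibition of growth.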

Tests used:
Test in all cases: DTP human tumour cell line panel, 48 h
[1] = test system: DU-145 prostate
[2] = test system: IGROV1 ovarian
[3] = test system: NCI/ADR-RES ovarian
[4] = test system: RXF 393 renal
[5] = test system: SF-268 CNS
[6] = test system: SK-OV-3 ovarian
[7] = test system: T-47D breast
[8] = test system: UACC-62 melanoma
[9] = test system: HCC-2998 colon
[10] = test system: SF-539 CNS

SMILES | TGI [1] [µM] | TGI [2] [µM] | TGI [3] [µM] | TGI [4] [µM] | TGI [5] [µM] | TGI [6] [µM] | TGI [7] [µM] | TGI [8] [µM] | TGI [9] [µM] | TGI [10] [µM] | GI50 [1] [µM] | GI50 [9] [µM] | GI50 [2] [µM] | GI50 [3] [µM] | GI50 [4] [µM] | GI50 [5] [µM] | GI50 [10] [µM] | GI50 [6] [µM] | GI50 [7] [µM] | GI50 [8] [µM]
CC(C)CC1c2[nH]c3ccccc3c2C[C@H]2C(=O)NC(CCC(=O)OC(C)(C)C)C(=O)N12 (stereo partly specified) | > 100 | > 100 | > 100 | 72 | > 100 | > 100 | 49.7 | > 100 |  |  |  |  |  |  |  |  |  |  |  | 
O=S(O)c1cc(Cl)cc(Cl)c1O |  |  |  | > 100 | > 100 | > 100 |  | > 100 | > 100 | > 100 |  |  |  |  |  |  |  |  |  | 
COc1cc(-c2coc3c(OC)c(OC4OC(CO)C(O)C(O)C4O)c(OC)cc3c2=O)cc(OC)c1C (stereo unspecified) | 26.8 | 30.9 | 27.4 | 8.85 | 21.5 | 23.4 | 45.1 | 17.2 | 18.6 | > 29 |  |  |  |  |  |  |  |  |  | 
C[C@]12CC(c3ccccc3O1)C(C(=O)NC13CC4CC(CC(C4)C1)C3)C(=O)N2 (stereo partly specified) | > 100 | > 100 | 55.6 | 57.6 | 96 | > 100 |  | > 100 | > 100 |  |  |  |  |  |  |  |  |  |  | 
CC(=O)OCC1OC(O[C@@H]2c3c(O)c4c(c(O)c3C3=C(NN(c5ccc([N+](=O)[O-])cc5[N+](=O)[O-])[Se]3=O)[C@@]2(C)O)C(=O)c2ccccc2C4=O)C(OC(C)=O)C(OC(C)=O)C1OC(C)=O (stereo partly specified) | 1.84 | 1.09 | 3.86 | 3.81 | 0.555 | 1.52 | 1.46 | 0.936 | 1.2 |  |  |  |  |  |  |  |  |  |  | 
N#C/C=C1\C=CC(O)C(O)C1OC1OC(CO)C(O)C(O)C1O (stereo unspecified) | > 100 | > 100 | > 100 | > 100 | > 100 | > 100 | > 100 | > 100 | > 100 | > 100 |  |  |  |  |  |  |  |  |  | 
O=C(O)C1CC(c2ccccc2)=NN1c1ccccc1 (stereo unspecified) | > 100 | > 100 | > 100 | > 100 | > 100 | > 100 | > 100 | > 100 | 57.4 | > 100 |  |  |  |  |  |  |  |  |  | 
CC1(C)COC(/C=C/C2=NC(C)(C)CO2)=N1 | 44.1 | 50.6 | 84 | 34.5 | 75.8 | > 100 | 34 | 31.4 |  | 51.7 |  |  |  |  |  |  |  |  |  | 
c1ccc2sc(C3(N4CCCCC4)CCCC3)cc2c1 | 24 | 23.6 | 24.8 | 30.3 | 24.3 | 31.4 |  | 29.4 | 13.5 | 31.7 |  |  |  |  |  |  |  |  |  | 
C=C1C(=O)OC2C1C(OC(=O)/C(C)=C/C)CC1(C)C(=O)CCC(=C)C21 (stereo unspecified) | 24.2 | 26.6 | 33.8 | 11 | 33.4 | 51.7 | 43.3 | 23.5 | 26.6 | 32.1 |  |  |  |  |  |  |  |  |  | 
COC(=O)C1=CC[C@@H]2C(C(=O)O)=CO[C@@H](OC3OC(CO)C(O)C(O)C3O)[C@H]12 (stereo partly specified) |  | > 300 | > 300 | > 300 | > 300 | > 300 |  | > 300 | > 300 | > 300 |  |  |  |  |  |  |  |  |  | 
Fc1ccc(-c2ccc(-c3nnc(-c4cc(F)c(Cl)cc4Cl)o3)o2)cc1Cl | > 100 | > 100 | > 100 | > 100 | > 100 | > 100 | 45.1 | 51.2 | > 100 | 85.7 | 29.5 | 41.3 | 30.1 | 35.8 | 48 | 33 | 29.4 | 41.2 | 13.7 | 17.6
O=S(=O)(c1ccc(I)cc1)N(c1ccccc1)S(=O)(=O)C(F)(F)C(F)(F)C(F)(F)C(F)(F)F | > 100 | > 100 | > 100 | 78.6 |  | 74 | > 100 | > 100 |  | > 100 |  |  |  |  |  |  |  |  |  | 
[C-]#[O+].[C-]#[O+].[Ir].[O-]c1cccc2cccnc12 |  | > 100 |  | > 100 |  | > 100 |  | > 100 | > 100 | > 100 |  | > 100 |  |  | > 100 |  | > 100 | > 100 |  | > 100
CCOC(=O)n1cncc1CC(NC(=O)Cc1c(C(=O)C=C(C)C)[nH]c2ccccc12)C(=O)OC (stereo unspecified) | 35.9 | 37.5 | > 100 | 28.5 | 37.4 | 35.3 | 7.46 | 36.3 | 32.2 | 46.2 |  |  |  |  |  |  |  |  |  | 
COc1cccc(-c2nc3c(C(=O)NCCN(C)C)cccc3[nH]2)c1 |  | 53.9 | 44.1 | 56.7 | > 41.7 | 69.5 |  | 31.8 | 30.8 | 41.4 |  |  |  |  |  |  |  |  |  | 
CC(C)C(N=Cc1ccccc1O)C(=O)O (stereo unspecified) | > 100 | > 100 | > 100 |  | > 100 | > 100 | > 100 | > 100 |  | > 100 |  |  |  |  |  |  |  |  |  | 
OC1CC(O)c2c(Cl)sc(Cl)c21 (stereo unspecified) | > 100 | > 100 | > 100 | 11.5 | > 100 | 82 | > 100 | > 100 |  | > 100 |  |  |  |  |  |  |  |  |  | 
C[N+]1(C)CCC(C#N)(c2ccccc2)CC1 | > 100 | > 100 | > 100 | > 100 | > 100 | > 100 | > 100 |  | > 100 |  |  |  |  |  |  |  |  |  |  | 
O=C1/C(=C\c2ccc(-c3ccc(Cl)cc3Cl)o2)SC2N=C(COc3ccc(Cl)cc3)NN12 (stereo unspecified) | > 100 | > 100 | > 100 | 88 | > 100 | > 100 | > 100 | > 100 | > 100 | > 100 |  |  |  |  |  |  |  |  |  | 
COc1ccc(SC(C)(SC)c2ccccn2)c(OC)n1 (stereo unspecified) | > 100 | > 100 | > 100 | > 100 | > 100 |  |  | > 100 | > 100 | > 100 |  |  |  |  |  |  |  |  |  | 
CC(O)C(O)C(N)CC=O (stereo unspecified) |  | > 500 | > 500 | > 500 | > 500 | > 500 |  | > 500 | > 500 | > 500 |  |  |  |  |  |  |  |  |  | 
CN(C)Cc1ccc(C(=O)Nc2ccc3ncnc(Nc4ccc(Oc5cccc(F)c5)c(Cl)c4)c3c2)cc1 | 2.91 | 2.6 | 3.45 | 2.99 | 3.28 |  |  | 3.23 | 3.11 | 3.04 | 1.55 | 1.67 | 1.12 | 1.67 | 1.5 | 1.53 | 1.6 |  |  | 1.77
